In patent US20070280946A1, “Antibody to 5' -Deoxy-5' - Methylthioadenosine And Uses Thereof” (priority 2004, published 2007):

Assays:
spermidine synthase [1] = conditions: Shirahata et al., Biochem. Pharma., 1991; read-out: IC50 value in a publication; cited from earlier work
spermidine synthase [2] = molecular target: T1, spermidine synthase (Homo sapiens, UniProt P19623); test: Activity measurement of spermidine synthase by ELISA; assay type: biochemical; conditions: measured by ELISA; read-out: IC50 value, inhibition of MTA production by SPDS
T1 construct: Human SPDS gene was amplified by PCR, inserted into an entry vector pENTR11; made in house; host or cells: HEK293 cells (transient transfection, Lipofectamine 2000)
T1 sequence (P19623 1-302): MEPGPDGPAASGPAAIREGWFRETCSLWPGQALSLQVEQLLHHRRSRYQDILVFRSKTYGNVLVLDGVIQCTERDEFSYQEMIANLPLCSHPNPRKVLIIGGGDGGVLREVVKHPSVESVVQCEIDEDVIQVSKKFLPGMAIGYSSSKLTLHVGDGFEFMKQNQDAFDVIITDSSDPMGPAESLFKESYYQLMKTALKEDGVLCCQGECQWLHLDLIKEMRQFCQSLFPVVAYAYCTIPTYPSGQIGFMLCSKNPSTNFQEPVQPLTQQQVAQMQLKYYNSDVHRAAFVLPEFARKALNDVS
Description: The amount of MTA in each well was calculated from the competitive curve described above, and the produced amount of MTA per an enzyme amount and a reaction time was determined to be defined as an enzyme activity. It was confirmed that a production amount of MTA was increased depending on a concentration of spermidine synthase and a reaction time. […] Pharma., 1991.). […] By detecting a production amount of MTA according to the present method, an inhibition effect of the test substance was measured.

spermidine synthase [3] = molecular target: T1, spermidine synthase; test: Activity measurement of spermidine synthase by HTRF; assay type: biochemical; conditions: measured by HTRF; read-out: IC50 value, inhibition of MTA production by SPDS
Description: 10 μL of spermidine synthase diluted with buffer C was added into 384-well assay plate (black, Corning). Then, to the plate was added 10 μl of the above substrate mixture, and reaction was conducted at room temperature. […] Then, each well was added with 20 μl of europium cryptate-labeled anti-MTA-7H8 antibody made to 288 ng/ml with buffer D, and the mixture was reacted for 16 hours at room temperature. Fluorescence of each well was measured by Rubyster (BMG Labtechnologis). An amount of MTA in each well was calculated from a standard curve, and converted to an amount of MTA per an enzyme amount and a reaction time, which was an enzyme activity. In FIG. 4, open circles represent reactivity to dcSAM and filled circles represent reactivity to MTA. […] It was confirmed that a production amount of MTA was increased depending on a concentration of spermidine synthase and a reaction time. […] By detecting a production amount of MTA according to the present method, an inhibition effect of the test substance was measured.

[4] = tested on: interaction of proteoglycan units with collagen; conditions: column of Sepharose 4B-collagen loaded with proteoglycan subunits; cited from earlier work
[5] = molecular target: T2, alkaline phosphatase produced from cartilage (Homo sapiens, UniProt P05186); conditions: cited from earlier work
T2 sequence (P05186 18-501): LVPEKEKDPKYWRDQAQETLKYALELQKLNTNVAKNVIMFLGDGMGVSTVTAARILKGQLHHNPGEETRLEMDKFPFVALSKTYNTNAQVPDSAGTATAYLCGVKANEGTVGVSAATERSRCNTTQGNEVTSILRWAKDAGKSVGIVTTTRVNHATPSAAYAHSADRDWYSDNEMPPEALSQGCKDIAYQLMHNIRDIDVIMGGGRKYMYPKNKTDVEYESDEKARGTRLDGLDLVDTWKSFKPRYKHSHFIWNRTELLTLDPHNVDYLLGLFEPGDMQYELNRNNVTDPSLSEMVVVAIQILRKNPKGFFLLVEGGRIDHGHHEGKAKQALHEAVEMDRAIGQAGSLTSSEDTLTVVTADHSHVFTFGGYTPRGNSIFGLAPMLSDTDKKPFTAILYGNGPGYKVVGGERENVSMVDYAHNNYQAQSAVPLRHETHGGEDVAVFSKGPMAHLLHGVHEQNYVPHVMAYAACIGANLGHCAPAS

SMILES	IC50 (spermidine synthase [1]) [nM]	IC50 (spermidine synthase [2]) [nM]	IC50 (spermidine synthase [3]) [nM]	capacity of displacing proteoglycan subunits from the column [4]	proteoglycan subunits removed from the column [4]	effect on activity of alkaline phosphatase produced from cartilage [5]
CC1CCC(N)CC1 (stereo not drawn) [4-methylcyclohexylamine]	1700	1000	1100	–	–	–
NCCCCN [putrescine]	–	–	–	without effect	–	–
NCCCCNCCCN [spermidine]	–	–	–	showed the capacity of displacing proteoglycan subunits	about 90%	increased the activity
NCCCNCCCCNCCCN [spermine]	–	–	–	without effect	–	increased the activity
